This note sets out measurements from patent US20250009756A1 (Acerus Biopharma Inc., priority 2012, published 2025).

Each structure is given as a SMILES string. Entries after “also recorded” stand apart in the source; their conditions may differ.

Data set [1] is described as follows: Solubility of testosterone in water, solvents, oils and vehicles.
The nature of data set [2]: pKa of testosterone. As to conditions: deduced from the molecular structure.

For the compound `C[C@]12CC[C@H]3[C@@H](CCC4=CC(=O)CC[C@@]43C)[C@@H]1CC[C@@H]2O` [Testosterone, 17ß-Hydroxyandrost-4-en-3-one], the Solubility in oils entry is “up to 4%” in data set [1] (castor oil); 0.5% in data set [1] (corn oil); 0.7% in data set [1] (cottonseed oil); 0.8% in data set [1] (isopropylmyristate); 0.5% in data set [1] (peanut oil); 0.6% in data set [1] (soybean oil). The “Solubility in castor oil” value in data set [1] (castor oil pure, maximum) is recorded as 3.6%; in data set [1] (castor oil with 4% Labrafil), roughly 3.36%; in data set [1] (with fumed silica (Aerosil, CabOsil) and 4.0% Labrafil), “up to 4.5%”. Further, in data set [1] (solvent named in the value), the “Solubility (descriptive)” value is “freely soluble in methanol and ethanol; also recorded: soluble in acetone and isopropanol; also recorded: insoluble in n-heptane”. In addition, in data set [2], the pKa result is “no pKa value in the range 1-14”.
